# Laboratory results from publication PMC12373508, “D-cysteine impairs tumour growth by inhibiting cysteine desulfurase NFS1” (Nature Metabolism, 2025).
# pKd: −log10 of the molar value.
# What was measured:
# [1] = biological target: NFS1 (Homo sapiens, UniProt Q9Y697, C381S); test: microscale thermophoresis; type: binding
# [2] = biological target: T1, NFS1 (Homo sapiens, UniProt Q9Y697); test: reconstituted [2Fe-2S] cluster synthesis by circular dichroism; UV/Vis of Cys-ketimine formation; type: biochemical
# Target sequence in this assay (Q9Y697 56-457, other chains not shown): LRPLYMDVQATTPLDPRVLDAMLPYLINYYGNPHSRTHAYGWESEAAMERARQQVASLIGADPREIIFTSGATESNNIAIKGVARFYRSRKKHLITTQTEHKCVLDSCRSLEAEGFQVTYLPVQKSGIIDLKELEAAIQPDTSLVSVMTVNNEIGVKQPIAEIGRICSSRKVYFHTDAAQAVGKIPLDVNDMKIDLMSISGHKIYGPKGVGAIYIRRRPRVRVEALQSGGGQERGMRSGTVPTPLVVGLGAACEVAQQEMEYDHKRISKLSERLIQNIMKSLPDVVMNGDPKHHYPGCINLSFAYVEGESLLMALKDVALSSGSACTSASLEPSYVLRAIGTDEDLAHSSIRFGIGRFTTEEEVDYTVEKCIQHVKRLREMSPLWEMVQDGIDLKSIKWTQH
# Target sequence in this assay (Q9HD34 whole entry partner, other chains not shown): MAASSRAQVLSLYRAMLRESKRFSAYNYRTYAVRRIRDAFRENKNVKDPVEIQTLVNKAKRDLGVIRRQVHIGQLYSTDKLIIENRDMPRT
# Target sequence in this assay (Q16595 81-210 partner, other chains not shown): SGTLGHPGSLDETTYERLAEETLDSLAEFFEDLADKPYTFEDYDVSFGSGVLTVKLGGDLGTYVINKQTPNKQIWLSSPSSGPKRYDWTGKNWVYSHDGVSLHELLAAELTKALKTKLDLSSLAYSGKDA
# Target sequence in this assay (Q9H1K1 35-167 partner, other chains not shown): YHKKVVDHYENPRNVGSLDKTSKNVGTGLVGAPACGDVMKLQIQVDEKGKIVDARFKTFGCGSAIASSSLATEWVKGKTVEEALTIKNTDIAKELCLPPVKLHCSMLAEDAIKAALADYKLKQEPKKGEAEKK
# [3] = biological target: T1, NFS1; test: X-ray crystal structure after incubation with […] ligand; type: binding
# Target sequence in this assay (Q9Y697 56-457): as the sequence (Q9Y697 56-457, other chains not shown) above
# Target sequence in this assay (Q9HD34 whole entry partner): as the sequence (Q9HD34 whole entry partner, other chains not shown) above
# Target sequence in this assay (P0A6A8 2-78 partner): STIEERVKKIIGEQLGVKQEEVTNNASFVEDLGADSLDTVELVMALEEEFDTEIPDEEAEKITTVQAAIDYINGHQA
# Target sequence in this assay (Q9H1K1 35-167 partner): as the sequence (Q9H1K1 35-167 partner, other chains not shown) above
# Chain of NFS1 (Homo sapiens, UniProt Q9Y697, C381S) (Q9HD34 whole entry, other chains not shown): as the sequence (Q9HD34 whole entry partner, other chains not shown) above
# Chain of NFS1 (Homo sapiens, UniProt Q9Y697, C381S) (Q9Y697 56-457 C381S, other chains not shown): as the sequence (Q9Y697 56-457, other chains not shown) above, with C326S counted along it
Structure (SMILES),pKd [1],reconstituted [2Fe-2S] cluster synthesis by circular dichroism; UV/Vis of Cys-ke [2],X-ray crystal structure after incubation with 1 mM ligand [3]
"N[C@H](CS)C(=O)O [D-Cys, D-cysteine]",4.59,"when D-Cys is present in excess, the NFS1 enzymatic activity is inhibited",–
"N[C@@H](CS)C(=O)O [L-Cys, L-cysteine]",5.67,–,–
"C#CC[C@H](N)C(=O)O [PG, L-propargylglycine]",–,–,"in the NFS1 active site, we observed an external L-propargylglycine-ketimine"
